{"source": "paper PMC8787488", "about": "“Two-Metal Ion-Dependent Enzymes as Potential Antiviral Targets in Human Herpesviruses” (mBio, 2022)", "key": {"UL15C": {"target": "T1, UL15C (Human alphaherpesvirus 1 strain 17, UniProt P04295)", "T1 construct": "gene TRM3; C-terminal nuclease domain, residues 471 to 736, pET28b(+), from E. coli BL21(DE3); without UL28 and UL33", "T1 sequence (P04295 471-735)": "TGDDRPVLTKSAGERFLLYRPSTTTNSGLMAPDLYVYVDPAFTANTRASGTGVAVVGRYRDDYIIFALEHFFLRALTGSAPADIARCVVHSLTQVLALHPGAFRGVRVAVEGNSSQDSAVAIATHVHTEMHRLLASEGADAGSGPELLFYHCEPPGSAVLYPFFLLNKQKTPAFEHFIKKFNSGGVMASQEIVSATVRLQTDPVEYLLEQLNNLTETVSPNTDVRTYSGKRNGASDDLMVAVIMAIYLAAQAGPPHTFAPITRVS", "test": "dual-probe fluorescence nuclease assay", "format": "biochemical"}, "UL12": {"target": "T2, UL12 (Human alphaherpesvirus 1 strain 17, UniProt P04294)", "T2 construct": "full-length alkaline nuclease, purified from baculovirus-infected Sf9 cells", "T2 sequence (P04294 whole entry, looked up)": "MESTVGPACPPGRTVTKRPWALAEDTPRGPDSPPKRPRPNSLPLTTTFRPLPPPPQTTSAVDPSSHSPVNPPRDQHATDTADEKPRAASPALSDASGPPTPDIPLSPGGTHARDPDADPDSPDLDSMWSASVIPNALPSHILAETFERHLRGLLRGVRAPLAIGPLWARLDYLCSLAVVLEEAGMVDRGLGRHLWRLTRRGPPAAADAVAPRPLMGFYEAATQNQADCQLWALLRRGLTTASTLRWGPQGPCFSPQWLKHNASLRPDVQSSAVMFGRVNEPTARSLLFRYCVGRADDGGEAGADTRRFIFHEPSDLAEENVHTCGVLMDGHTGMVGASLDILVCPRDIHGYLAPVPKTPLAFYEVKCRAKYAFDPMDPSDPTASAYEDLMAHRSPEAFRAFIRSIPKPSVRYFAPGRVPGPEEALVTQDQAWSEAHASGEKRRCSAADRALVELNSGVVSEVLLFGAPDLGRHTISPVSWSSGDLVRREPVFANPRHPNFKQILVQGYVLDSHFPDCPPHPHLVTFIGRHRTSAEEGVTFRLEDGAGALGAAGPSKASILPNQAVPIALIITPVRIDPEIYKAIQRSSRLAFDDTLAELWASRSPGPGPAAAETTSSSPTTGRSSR", "test": "PicoGreen dsDNA exonuclease assay", "format": "biochemical", "conditions": "10 nM UL12, 1 nM linearized pUC19 DNA, 1 mM MgCl2, pH 8.2, 37°C"}, "His-UL30ΔN42": {"target": "T3, His-UL30ΔN42 (Human alphaherpesvirus 1 strain KOS, UniProt P04292)", "T3 construct": "gene UL30; His-tagged, N-terminal 42 residues deleted; gift from Donald Coen; no UL42 mentioned", "T3 sequence (P04292 43-1235, stated change not applied)": "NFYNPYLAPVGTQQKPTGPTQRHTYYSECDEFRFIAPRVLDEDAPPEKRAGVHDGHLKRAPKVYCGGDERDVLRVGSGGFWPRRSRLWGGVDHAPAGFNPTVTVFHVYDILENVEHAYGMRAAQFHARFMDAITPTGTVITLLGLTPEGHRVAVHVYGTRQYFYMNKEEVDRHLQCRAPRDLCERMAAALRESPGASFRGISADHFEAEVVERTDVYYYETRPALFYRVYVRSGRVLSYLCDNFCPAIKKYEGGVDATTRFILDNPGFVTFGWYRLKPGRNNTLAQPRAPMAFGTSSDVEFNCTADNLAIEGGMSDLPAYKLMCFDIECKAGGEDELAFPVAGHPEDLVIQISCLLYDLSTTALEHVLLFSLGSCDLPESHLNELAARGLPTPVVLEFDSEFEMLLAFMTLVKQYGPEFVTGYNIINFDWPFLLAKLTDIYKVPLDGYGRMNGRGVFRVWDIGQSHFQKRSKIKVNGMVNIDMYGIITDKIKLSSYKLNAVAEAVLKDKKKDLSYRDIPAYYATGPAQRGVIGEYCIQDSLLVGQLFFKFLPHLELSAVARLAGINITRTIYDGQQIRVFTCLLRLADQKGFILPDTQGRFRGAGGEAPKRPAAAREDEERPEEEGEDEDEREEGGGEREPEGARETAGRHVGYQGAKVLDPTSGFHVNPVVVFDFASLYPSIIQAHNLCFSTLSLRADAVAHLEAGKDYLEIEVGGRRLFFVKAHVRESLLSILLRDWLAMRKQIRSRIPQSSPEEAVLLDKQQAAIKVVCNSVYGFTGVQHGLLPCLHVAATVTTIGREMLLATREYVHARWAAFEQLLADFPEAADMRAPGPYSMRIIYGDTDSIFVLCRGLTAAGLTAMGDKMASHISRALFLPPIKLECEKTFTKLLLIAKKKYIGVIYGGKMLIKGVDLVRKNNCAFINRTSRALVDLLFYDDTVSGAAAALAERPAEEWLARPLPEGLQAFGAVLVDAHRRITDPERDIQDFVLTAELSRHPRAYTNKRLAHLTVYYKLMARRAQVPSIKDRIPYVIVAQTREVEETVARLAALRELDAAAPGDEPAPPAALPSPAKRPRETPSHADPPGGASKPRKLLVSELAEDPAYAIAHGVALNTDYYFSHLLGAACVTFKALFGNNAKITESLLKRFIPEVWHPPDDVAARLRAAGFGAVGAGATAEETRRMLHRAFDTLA", "test": "gel-based primer extension polymerase assay", "format": "biochemical", "conditions": "50 nM enzyme, dNTPs, 10 mM MgCl2, pH 7.6, 37°C"}, "ICP8Δ60": {"target": "T4, ICP8Δ60 (Human alphaherpesvirus 1 strain KOS, UniProt P17470)", "T4 construct": "gene DBP; 60-residue deletion; source not described", "T4 sequence (P17470 1-1136, stated change not applied)": "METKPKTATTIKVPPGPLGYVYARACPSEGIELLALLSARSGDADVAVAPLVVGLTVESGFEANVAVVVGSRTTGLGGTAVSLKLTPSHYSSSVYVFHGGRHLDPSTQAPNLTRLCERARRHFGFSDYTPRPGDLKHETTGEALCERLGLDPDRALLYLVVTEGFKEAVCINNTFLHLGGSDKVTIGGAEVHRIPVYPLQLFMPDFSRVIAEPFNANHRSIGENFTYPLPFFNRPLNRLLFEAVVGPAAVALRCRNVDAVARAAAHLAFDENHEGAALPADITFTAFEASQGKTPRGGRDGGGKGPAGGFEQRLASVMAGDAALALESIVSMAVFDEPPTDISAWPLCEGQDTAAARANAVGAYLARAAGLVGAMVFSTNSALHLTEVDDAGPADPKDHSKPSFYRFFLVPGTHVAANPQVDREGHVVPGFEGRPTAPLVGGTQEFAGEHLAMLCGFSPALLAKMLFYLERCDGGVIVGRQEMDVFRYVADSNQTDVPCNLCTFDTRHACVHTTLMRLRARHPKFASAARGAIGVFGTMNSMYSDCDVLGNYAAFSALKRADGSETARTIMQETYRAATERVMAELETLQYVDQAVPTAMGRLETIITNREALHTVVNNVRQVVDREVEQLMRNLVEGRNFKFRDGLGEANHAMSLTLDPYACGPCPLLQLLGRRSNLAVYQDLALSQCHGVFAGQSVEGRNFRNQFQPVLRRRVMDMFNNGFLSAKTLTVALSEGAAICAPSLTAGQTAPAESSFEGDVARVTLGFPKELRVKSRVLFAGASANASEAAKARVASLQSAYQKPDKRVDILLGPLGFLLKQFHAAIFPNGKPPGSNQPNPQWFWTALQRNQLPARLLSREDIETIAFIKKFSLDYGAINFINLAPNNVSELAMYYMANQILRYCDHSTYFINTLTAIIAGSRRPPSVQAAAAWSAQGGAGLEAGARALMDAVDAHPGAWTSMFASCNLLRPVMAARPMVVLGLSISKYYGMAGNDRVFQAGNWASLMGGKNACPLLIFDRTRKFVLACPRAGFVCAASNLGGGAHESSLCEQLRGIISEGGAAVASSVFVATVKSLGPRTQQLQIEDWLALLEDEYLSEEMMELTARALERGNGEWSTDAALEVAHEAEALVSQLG", "test": "thermal shift, nanoDSF (Tycho NT.[…])", "format": "binding", "conditions": "20x molar excess of compound to protein, 5 mM MgCl2, pH 7.5, without ssDNA"}}}
{"smiles": "Cc1nnc(C(=O)NC(C)(C)c2nc(C(=O)NCc3ccc(F)cc3)c(O)c(=O)n2C)o1", "note": "[raltegravir]", "values": [{"measurement": "inhibition at 12.5 µM", "setting": "UL15C", "value": "~80", "unit": "%"}]}
{"smiles": "O=C(Nc1ccc(Br)cc1)c1ccc2cccnc2c1O", "note": "[AK-157]", "values": [{"measurement": "% inhibition at 20 μM", "setting": "UL12", "value": "strong inhibition was observed for PPG, AK-157, and AK-166"}, {"measurement": "inhibition at 20 μM", "setting": "His-UL30ΔN42", "value": "only AK-157 and the known polymerase inhibitor phosphonoacetic acid (PAA) showed strong inhibition"}]}
{"smiles": "CC(C)c1ccc(CNC(=O)c2ccc3cccnc3c2O)cc1", "note": "[AK-166]", "values": [{"measurement": "% inhibition at 20 μM", "setting": "UL12", "value": "strong inhibition was observed for PPG, AK-157, and AK-166"}]}
{"smiles": "O=c1c(O)cccc2cc(O)c(O)c(O)c12", "note": "[purpurogallin]", "values": [{"measurement": "% inhibition at 20 μM", "setting": "UL12", "value": "strong inhibition was observed for PPG, AK-157, and AK-166"}, {"measurement": "Ti", "setting": "ICP8Δ60", "value": "RAL had no appreciable interactions with ICP8, while PPG showed a modest effect"}]}
